Data taken from US20080226605A1, “Methods and Compositions Facilitating Entry of Compounds Into Cells” (priority 2005, published 2008).

Legend:
Type in all cases: cell-based, Human
DU145 cells [1] = assay: EGFP reporter uptake (pEGFP transfection, flow cytometry)
Method: (§1) Cell culture. Human prostate cancer cells DU145 were grown in RPMI 1640 medium, supplemented with 10% heat-inactivated fetal bovine serum (Life Technologies) under standard conditions (Carbone et al., Nucleic Acids Res. 2003, 31, 833-843; Carbone et al., Nucleic Acids Res 2004, 32, 4358-4367).
EGFP reporter uptake. DU145 cells were plated in 6-well plates at a density of 1.5×10^5 cells/well, grown overnight and then transfected. Trasfection mixtures contained 4 μg of pEGFP reporter plasmid with or without addition of neomycin and DOTAP at a 1:5 ratio as described above. Cells were incubated with the transfection complexes for 5 hours, then the medium was removed and replaced with fresh medium. After 24 hours, cells were harvested […], recovered by centrifugation, washed once with PBS, and then analyzed using a FACSCalibur (Becton Dickinson). Data were analyzed using Cell Quest software.
The effects of neomycin on transfection efficiency were further examined using another reporter system, a plasmid expressing green fluorescent protein, the pEGFP reporter vector. DU145 cells were transfected with the pEGFP plasmid in the presence of DOTAP, neomycin or both DOTAP and neomycin. After 24 hours, cells were collected and analyzed for EGFP expression by flow cytometry to examine both fluorescence intensity and percentage of EGFP-positive cells. […]

DU145 cells [2] = assay: Cellular uptake of fluorescein-labeled oligonucleotide (F-TFO), flow cytometry; settings: F-TFO 125 nM; for percentage of fluorescein-positive cells: neomycin 5 μM where present
Method: as §1
Oligonucleotides and other reagents. The fluorescein-conjugated phosphorothioate oligonucleotide (F-TFO) was purchased from Sigma. The oligonucleotide was purified by high-performance liquid chromatography (HPLC). The sequence of the F-TFO, which is identical to the Ets2-TFO, has been published previously (Carbone et al., Nucleic Acids Res. 2003, 31, 833-843). Stock solutions of oligonucleotides were made in sterile water. Oligonucleotide concentrations were determined with a spectrophotometer using appropriate nucleotide extinction coefficients. DOTAP (1,2-dioleoyl-3-trimethyl-ammonium-propane) was purchased from Roche (Indianapolis, Ind.). Neomycin was purchased from Sigma, and used as described previously (Arya et al., J. Am. Chem. Soc. 2003, 125, 3733-3744).
Cellular uptake of oligonucleotides. Uptake of F-TFO and dauno-GT11 was examined 24 hours after transfection of DU145 cells (1.5×10^5 cells/well in 6-well plates) with DOTAP with or without the addition of neomycin as described above. Concentration of F-TFO was 125 nM, corresponding to about 1 μg of DNA/well. After 24 hours, cells were washed and analyzed using a FACSCalibur as described above.
Neomycin positively affected transfection efficiency of plasmid DNA mediated by DOTAP. This effect could be mediated by an increase in intracellular uptake and/or by an enhanced release of DNA from lipid complex into the cytoplasm. […] For the tests shown in FIG. 3, a phosporothioate oligonucleotide directed to the Ets2 gene promoter (Ets2-TFO) was conjugated at the 5′ end with fluorescein (Carbone et al., Nucleic Acids Res. 2003, 31, 833). Cells were transfected with the fluorescein labeled TFO (F-TFO) for 6 hours and then incubated for 24 hours in fresh medium before the analysis by flow cytometry. At the concentration used in the test, only about 7% of cells were fluorescein-positive when transfected with DOTAP alone. The percentage of fluorescein-positive cells increased to about 50% when the oligonucleotide was delivered using the combination of DOTAP and neomycin. Therefore, neomycin enhanced uptake of the F-TFO by approximately 7-fold.

DU145 cells [3] = assay: Luciferase reporter assay (transfection of reporter plasmids); settings: neomycin added to the medium after the transfection
Method: as §1
Reporter plasmids. The reporter plasmid pGL3-Ets2 containing the firefly luciferase gene under control of Ets2 promoter has been previously described (Carbone et al., Nucleic Acids Res 2004, 32, 4358-4367). The pRL-SV40 reporter plasmid was purchased from Promega. The pEGFP plasmid was obtained from Clontech.
Luciferase reporter assay. DU145 cells were plated in 48-well plates at a density of 1.5×10^4 cells/well. After 24 hours, cells were transfected with DOTAP-DNA complexes as previously described (Carbone et al., Nucleic Acids Res. 2003, 31, 833-843). […] Mixtures of DNA-DOTAP and DNA-DOTAP-neomycin were allowed to sit at room temperature for 15 minutes for complex formation. […] Luciferase activity was measured with the Luciferase assay system from Promega.
The effects of neomycin in combination with the cationic lipid preparation DOTAP on the uptake of luciferase reporter plasmids was determined. […] The efficiency of transfection as assessed by the luciferase assay increased as the concentration of neomycin increased from 0.5 to 5 μM (FIG. 1A). […]

[4] = flow cytometry 24 hours after transfection

Row | Molecule | mean fluorescent intensity (EGFP) (DU145 cells [1]; pEGFP plasmid 4 μg, flow cytometry after 24 hours) | mean fluorescent intensity (F-TFO) (DU145 cells [2]; [4]) | percentage of fluorescein-positive cells (DU145 cells [2]; [4]) | effect on luciferase reporter activity (DU145 cells [3]) | efficiency of DNA uptake (DU145 cells [1]; pEGFP plasmid, neomycin alone (5 μM), without DOTAP) | oligonucleotide uptake (DU145 cells [2]; neomycin alone (5 μM), without DOTAP)
1 | CCCCCCCC/C=C\CCCCCCCC(=O)OCC(C[N+](C)(C)C)OC(=O)CCCCCCC/C=C\CCCCCCCC (stereo not shown) [DOTAP, 1,2-dioleoyl-3-trimethyl-ammonium-propane] | 27.8 | 19.4 | about 7% | – | – | –
2 | neomycin | – | – | 2.4% | No effect | marginally affected | did not affect
